From US20250375492A1, “MONASCUS PILOSUS STRAIN, COMPOSITION FOR PREVENTING OR TREATING NONALCOHOLIC FATTY LIVER DISEASE AND USE OF SAID MONASCUS PILOSUS” (SUNWAY BIOTECH CO., LTD., priority 2024, published 2025)

Test system: gut microbiota of nonalcoholic fatty liver mice
Test: Gut microbiota analysis (full-length 16S sequencing) in nonalcoholic fatty liver mice
Assay type: in vivo, C57BL/6J mice
Conditions: compared with the HFD group; L008, H008 and Msol groups; FIG. 9
Description: The experiment used 7-week-old male C57BL/6J strain mice purchased from the National Laboratory Animal Center. The initial body weight was about 23 g, with 12 mice per group. They were housed at 60% relative humidity, room temperature 25±1° C., with a 12-hour light cycle (8:00-20:00). The experiment lasted for 22 weeks, during which food and water were provided ad libitum. Body weight, food intake, and water consumption were measured weekly.
Embodiment 4 uses a high-fat feed to induce a nonalcoholic fatty liver animal model. The animal experiment lasted for 22 weeks. Animal test feed was prepared according to the formula of Research Diets (New Brunswick, NJ, USA) for D12450B and D12492. The grouping is as follows: • i. […]
Total genomic DNA was extracted from samples (QIAamp PowerFecal DNA, Qiagen). DNA concentration was determined using a Qubit 4.0 fluorometer (Thermo Scientific) and adjusted to 1 ng/μL. […] PCR reactions were performed using KAPA HiFi HotStart ReadyMix (Roche): 95° C., 3 minutes; 20-27 cycles (sample-dependent): 95° C., 30 seconds, 57° C., 30 seconds, 72° C., 60 seconds; 72° C. for 5 minutes, and final storage at 4° C. PCR products were monitored on 1% agarose gel. […]
Sample data were demultiplexed from the raw data based on Barcode sequences and PCR amplification primer sequences. […] The sequences with primers removed were used as QIIME2 DADA2 Input Reads. […]

## Monascinol [Msol]
  microbial population (abundance) of Blautia in the intestine: increase
  microbial population (abundance) of Intestinimonas in the intestine: increase
